Data on one compound can be found in publication PMC9501633, “Synthesis, Characterisation and Mechanism of Action of Anticancer 3-Fluoroazetidin-2-ones” (Pharmaceuticals, 2022).

Data set [1] has as its system purified bovine brain tubulin. In words: Tubulin polymerisation assay (turbidimetric, 340 nm). The data set is classed as biochemical. The protocol:
Tubulin polymerisation was investigated using a turbidimetric assay which determines the light scattering by microtubules (absorbance at 340 nm) that is proportional to the microtubule polymer concentration.
Tubulin polymerisation was monitored with purified bovine tubulin using the BK006 kit supplied by Cytoskeleton Inc. (Denver, CO, USA), carried out following the manufacturer’s instructions with the standard assay conditions. Purified (>99%) bovine brain tubulin (3 mg/mL) in a buffer containing PIPES (80 mM, pH 6.9), EGTA (0.5 mM), MgCl2 (2 mM), GTP (1 mM) and glycerol (10%) was incubated at 37 °C in the presence of either vehicle (2% (v/v) ddH2O) or paclitaxel (10 µM), CA-4 (10 μM) or 33 (10 and 30 µM). The effect on tubulin assembly was monitored turbidimetrically at 340 nm in a Spectramax 340 PC spectrophotometer (Molecular Devices, Sunnyvale, CA, USA), with the light scattered depending on the concentration of polymerised microtubules formed. The absorbance was measured at 30 s intervals for 60 min.
Figure 7 Effect of β-lactam compound 33 (10 and 30 µM) and paclitaxel (10 µM) on in vitro tubulin polymerisation. Purified bovine tubulin and GTP were mixed in a 96-well plate. Compounds were added and the reaction was started by warming the solution from 4 to 37 °C. Ethanol (1% v/v) was used as a vehicle control. The effect on tubulin assembly was monitored in a Spectramax 340PC spectrophotometer at 340 nm at 30 s intervals for 30 min at 37 °C. […] Each experiment was performed in duplicate.

Data set [2] in a line: Stability under degradation conditions (HPLC). The data set is classed as physicochemical. The protocol:
The β-lactam ring is known to undergo hydrolysis/degradation depending on the substituent type on the ring. For example, degradation of monocyclic β-lactam antibiotic aztreonam increased with elevated humidity, temperature and acidic pH buffer. Ezetimibe, a monocyclic β-lactam drug used to reduce blood cholesterol, undergoes degradation and hydrolysis more rapidly in neutral and basic pH conditions than in acidic pH [71]. The stability of representative compounds 33 and 39 was also determined at pH 4, pH 7.4 (plasma) and pH 9 (intestine) by HPLC. […] The electron-withdrawing effect of the 3-fluoro substituent may result in decreasing stability of the β-lactam ring in response to acid hydrolysis.
The stability study for compounds 33 and 39 was performed using analytical HPLC (Symmetry column (C18, […], 4.6 × 150 mm), dual wavelength absorbance detector (Waters 2487), binary HPLC pump (Waters 1525) and autosampler (Waters 717 plus)) with mobile phase acetonitrile (70%)/water (30%), flow rate 1 mL/min over 15 min and detection at λ 254 nm. Stock solutions of compounds 33 and 39 (1 mg/mL in mobile phase) were used. Dilutions of 0.5 mg/mL, 0.25 mg/mL, 0.125 mg/mL, 0.0625 mg/mL, 0.03125 mg/mL, 0.015625 mg/mL and 0.0078 mg/mL were prepared for the calibration curve. (i) Stability of 33 and 39 in phosphate buffers: The phosphate buffers were prepared in accordance with the British Pharmacopoeia 2020 at pH values 4, 7.4 and 9. Stock solution, 300 µL (1 mg/mL ACN), was added to a vial containing buffer (9.7 mL), mixed and pre-heated to 37 °C. 1 mL of the solution was introduced into an HPLC vial. Samples (10 µL) were injected and analysed at time intervals of t = 0 min, 5 min, 30 min, 60 min and hourly for 24 h. The analysis was performed in triplicate. (ii) Thermal stability: Compounds 33 and 39 (1 mL stock solution) were each placed in a vial for 4 h at 60 °C on a heating block. The sample was then cooled, diluted with acetonitrile and analysed by HPLC. (iii) Photostability study: Compounds 33 and 39 (stock solution, 1 mL) were placed in a vial, exposed to UV light for 4 h and then analysed by HPLC. (iv) Stability in acidic conditions: HCl (0.1 M, 0.2 mL) was added to stock solutions (0.8 mL) of 33 and 39 in a vial. The vial was vortexed and retained at room temperature. A sample was neutralised with NaOH (0.1 M, 0.2 mL) each hour for 4 h and then analysed by HPLC. (v) Stability of 33 and 39 in basic (alkaline) conditions: NaOH (0.1 M, 0.2 mL) was added to stock solution (0.8 mL) in a vial. The vial was vortexed and retained at room temperature. A sample was neutralised with HCl (0.1 M, 0.2 mL) every hour for 4 h then analysed by HPLC. (vi) Stability of 33 and 39 in oxidising conditions: H2O2 (3%, 0.2 mL) was added to the stock solution (0.8 mL). The vial was vortexed to obtain a homogeneous mixture and retained at room temperature, and a sample was analysed by HPLC every hour for 4 h.

In the case of `COc1ccc(C2C(F)C(=O)N2c2cc(OC)c(OC)c(OC)c2)cc1F` (centres unmarked) [Compound 33, 3-Fluoro-4-(3-fluoro-4-methoxyphenyl)-1-(3,4,5-trimethoxyphenyl)azetidin-2-one], the “reduction in the Vmax of tubulin polymerisation compared to the vehicle” value was 3.5 fold in data set [1] (10 μM) and 4 fold in data set [1] (30 µM). The “effect on tubulin polymerisation” value in data set [1] (paclitaxel 10 µM, 33 10 and 30 µM) is given as “inhibited tubulin polymerisation”. Besides, the fraction remaining (commonly the share of the starting amount still present when the sample was taken) at 4 h, 0.8 mg/mL in data set [2] (0.1 M HCl added to stock solution, acidic (0.1 M HCl)) was 60%; in data set [2] (0.1 M NaOH added to stock solution, alkaline (0.1M NaOH)), 65%; in data set [2] (3% H2O2 added to stock solution, oxidative (3% H2O2)), 65%. Moreover, the amount remaining at 4 h, 1 mg/mL in data set [2] (stock solution in acetonitrile/water under UV light, UV light) was determined as 88%; in data set [2] (stock solution in acetonitrile/water, heated, heat (60 °C)), 90%.
